The text below walks through data of PubChem BioAssay (NCI).

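Five concentrations, 48 hours, 96-well plates. GI50 is the concentration that inhibits growth by half. TGI: total growth inhibition.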

Some test systems named below: HOP-92 NSCLC; K-562 leukemia; MOLT-4 leukemia; NCI-H226 lung; SF-539 CNS; SK-MEL-28 melanoma; SN12C renal; SNB-75 CNS; UACC-257 melanoma; HS 578T breast.
Holding throughout (test): NCI anticancer screen, dose series, 48 h

In the case of `Nc1cc(=O)[nH]c(SC2=NC(N)CC(O)C2)n1` (stereo unspecified), the TGI with HOP-92 NSCLC, in the assay on K-562 leukemia, in the assay with MOLT-4 leukemia, with NCI-H226 lung, in the assay with SF-539 CNS and with SK-MEL-28 melanoma was more than 100 µM in each case. Moreover, the TGI with SN12C renal, in the assay with SNB-75 CNS and in the assay on UACC-257 melanoma was more than 100 µM in each case.
`CCCC(O)[C@@H](O)c1ccc2c(c1O)C(=O)c1c(OC)cccc1C2=O` (stereo partly specified): the TGI in the assay on HOP-92 NSCLC was more than 100 µM; in the assay with K-562 leukemia, more than 100 µM; in the assay on MOLT-4 leukemia it was 69.2 µM; in the assay with NCI-H226 lung, more than 100 µM; with SF-539 CNS it was 58.8 µM; in the assay with SK-MEL-28 melanoma, more than 100 µM. The TGI in the assay on SN12C renal was more than 100 µM; in the assay on SNB-75 CNS, more than 100 µM; with UACC-257 melanoma, 68.8 µM.
Consider `COC(=O)CCC(=O)N1Cc2cc(C)ccc2N(C(=O)CCC(=O)OC)Cc2cc(C)ccc21`, for which the TGI with HOP-92 NSCLC, in the assay with K-562 leukemia, in the assay on MOLT-4 leukemia, in the assay on NCI-H226 lung, in the assay on SF-539 CNS and in the assay on SK-MEL-28 melanoma was more than 100 µM each time. This molecule gave a TGI in the assay with SN12C renal of more than 100 µM.
With `O=C(CCl)c1ccc([N+](=O)[O-])o1`, the GI50 is 2.72 µM in the assay on HS 578T breast; 1.18 µM in the assay with K-562 leukemia; 1.15 µM in the assay with MOLT-4 leukemia; 2.45 µM in the assay on NCI-H226 lung; 2.28 µM in the assay on SF-539 CNS; 1.61 µM in the assay on SK-MEL-28 melanoma. Besides, the GI50 with SN12C renal is 2.38 µM; with SNB-75 CNS, 3.06 µM; with UACC-257 melanoma, 1.83 µM. Besides, the TGI in the assay with HS 578T breast was 8.66 µM; in the assay on K-562 leukemia, more than 19.8 µM; with NCI-H226 lung, 7.05 µM; in the assay with SF-539 CNS, 5.03 µM; with SK-MEL-28 melanoma it was 3.14 µM; in the assay on SN12C renal it was 7.27 µM. Moreover, the TGI in the assay on SNB-75 CNS came to 9.16 µM; with UACC-257 melanoma, 3.93 µM.
As to `CCOP(=O)(OCC)C1CCCCOC1=O` (stereo unspecified), the TGI with K-562 leukemia, in the assay on MOLT-4 leukemia, with SF-539 CNS, in the assay with SK-MEL-28 melanoma, in the assay with SN12C renal and in the assay with SNB-75 CNS was more than 100 µM throughout. The molecule further displayed a TGI in the assay with UACC-257 melanoma of more than 100 µM.
Take `CCC[CH2][Sn]([CH2]CCC)([O]C(C)=O)[O]C(C)=O`: the GI50 in the assay with HOP-92 NSCLC is 1.92 µM; in the assay on K-562 leukemia, 0.299 µM; in the assay on MOLT-4 leukemia it was 0.505 µM; with NCI-H226 lung it was 1.53 µM; in the assay on SF-539 CNS, 1.53 µM; in the assay on SK-MEL-28 melanoma, 1 µM. Besides, the values for the GI50 in the assay with SN12C renal, in the assay on SNB-75 CNS and with UACC-257 melanoma were 1.24 µM, 1.02 µM and 1.39 µM, respectively. For the same molecule, the TGI with HOP-92 NSCLC is 4.13 µM; in the assay on K-562 leukemia, 2.59 µM; in the assay with MOLT-4 leukemia, 4.59 µM; in the assay on NCI-H226 lung it was 3.01 µM; in the assay on SF-539 CNS it was 3.19 µM; in the assay on SK-MEL-28 melanoma it was 2.27 µM. Moreover, the TGI was 2.54 µM with SN12C renal, 2.63 µM in the assay on SNB-75 CNS and 3.26 µM in the assay with UACC-257 melanoma.
For `C=C1C(=O)OC2CC3(C)C=CC(=O)C(=C)C3CC12` (stereo unspecified), the TGI in the assay on HOP-92 NSCLC is 3.49 µM; in the assay with K-562 leukemia, more than 100 µM; in the assay with MOLT-4 leukemia it was 3.52 µM; with NCI-H226 lung, 25.8 µM; in the assay on SF-539 CNS, 3.97 µM; with SK-MEL-28 melanoma it was 3.48 µM. In addition, the values for the TGI in the assay with SN12C renal, in the assay on SNB-75 CNS and in the assay on UACC-257 melanoma were 3.46 µM, 14.7 µM and 3.1 µM, respectively.
Consider `COc1ccccc1[N-]C(C1=C([O-])c2ccccc2C1=O)c1ccccc1.COc1ccccc1[N-]C(C1=C([O-])c2ccccc2C1=O)c1ccccc1.[Cu+2]` (stereo unspecified), for which the GI50 in the assay on HOP-92 NSCLC is 9.86 µM; in the assay with K-562 leukemia it was 3.18 µM; in the assay with MOLT-4 leukemia, 5.98 µM; in the assay on SF-539 CNS it was 3.82 µM; in the assay with SK-MEL-28 melanoma it was 16.2 µM; in the assay on SN12C renal, 9.37 µM. Also, the results for the GI50 with SNB-75 CNS and in the assay on UACC-257 melanoma were 11.9 µM and 12.9 µM, respectively. Besides, the TGI in the assay on HOP-92 NSCLC is 69.7 µM; with K-562 leukemia it was more than 100 µM; in the assay with MOLT-4 leukemia, more than 100 µM; with SF-539 CNS, 15.1 µM; in the assay on SK-MEL-28 melanoma, more than 100 µM; in the assay on SN12C renal, more than 100 µM. Moreover, the TGI in the assay with SNB-75 CNS is 37.1 µM; in the assay on UACC-257 melanoma, more than 100 µM.
`O=C(NCCCCCCNC(=O)c1cccc2ccccc12)c1cccc2ccccc12`: the TGI in the assay on HOP-92 NSCLC was 25.8 µM; with K-562 leukemia, more than 100 µM; in the assay on MOLT-4 leukemia it was more than 100 µM; in the assay on NCI-H226 lung, 53 µM; in the assay with SF-539 CNS, 35.4 µM; in the assay with SK-MEL-28 melanoma, more than 100 µM. The TGI in the assay with SN12C renal is more than 100 µM; in the assay on SNB-75 CNS, 9.55 µM; in the assay on UACC-257 melanoma, more than 100 µM.
Regarding `O=C(CCN1CCCC1)Nc1ccc2c(NCc3ccc(F)cc3)c3ccccc3nc2c1`, the GI50 was 0.366 µM in the assay on HOP-92 NSCLC; 0.398 µM in the assay on MOLT-4 leukemia; 0.57 µM with NCI-H226 lung; 0.443 µM in the assay on SF-539 CNS; 1.47 µM with SK-MEL-28 melanoma; 0.39 µM in the assay with SN12C renal. In addition, the results for the GI50 in the assay with SNB-75 CNS and with UACC-257 melanoma were 0.506 µM and 1.74 µM, respectively. The TGI in the assay with HOP-92 NSCLC was 2.07 µM; in the assay with MOLT-4 leukemia, 2.34 µM; with NCI-H226 lung it was 2.63 µM; in the assay with SF-539 CNS it was 1.63 µM; with SK-MEL-28 melanoma, 2.88 µM; in the assay on SN12C renal, 1.66 µM. For the same molecule, the TGI was 1.87 µM with SNB-75 CNS and 3.54 µM with UACC-257 melanoma.
`O=C(CC1Sc2ccccc2NC1=O)Nc1cc(Cl)ccc1Cl` (stereo unspecified): the TGI with HOP-92 NSCLC, in the assay on K-562 leukemia, in the assay with MOLT-4 leukemia, in the assay on NCI-H226 lung, in the assay with SF-539 CNS and in the assay on SK-MEL-28 melanoma was more than 100 µM throughout. Also, the TGI in the assay with SN12C renal, with SNB-75 CNS and in the assay with UACC-257 melanoma was more than 100 µM each time.
